Among the data in patent US7029865B2, “DNA molecules encoding the melanocortin 4 receptor protein from rhesus monkey” (Merck & Co., Inc., priority 1998, dated 2006) are IC50 values, retold here.

One may read the IC50 as the concentration that gives 50% inhibition.

The subject of the assay is rhMC-4R. As to the kind of experiment: Competitive binding assay, [125I]-NDP alpha MSH, membranes from rhesus MC-4R transfected cells. The note with it: read-out: IC50 rhMC-4R.

Sequence of rhMC-4R (as listed by the source): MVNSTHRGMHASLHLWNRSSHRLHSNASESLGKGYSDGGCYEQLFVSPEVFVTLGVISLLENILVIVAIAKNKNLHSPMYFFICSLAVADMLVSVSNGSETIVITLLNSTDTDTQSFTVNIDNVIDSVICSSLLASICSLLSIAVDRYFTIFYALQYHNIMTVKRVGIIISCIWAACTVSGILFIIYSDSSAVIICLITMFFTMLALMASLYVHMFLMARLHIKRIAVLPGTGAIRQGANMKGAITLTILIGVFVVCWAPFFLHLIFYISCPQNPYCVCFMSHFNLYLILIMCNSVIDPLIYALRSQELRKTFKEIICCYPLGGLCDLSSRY
Protocol: Reactions were incubated for 1 hour without shaking and then filtered through 96-well filter plates (Packard corp.). Filters were washed three times with TNE buffer (50 mM Tris pH 7.4, 5 mM EDTA, 150 mM NaCl), dried and counted using Microscint-20 in a Topcount scintillation counter (Packard).
Membranes prepared from rhesus MC-4R transfected cells were evaluated alongside membranes prepared from human MC-4R, MC-4R, and MC-5R expressing cells.

On to NDP-alpha-MSH, for which the IC50 worked out at 1.3 nM.
